For assay [1], the target named is Serine/threonine-protein kinase B-raf (Homo sapiens, UniProt P15056, V600E). Description: Inhibition of BRAF V600E mutant (unknown origin).
Another assay deals with UACC-62. Description: Antiproliferative activity against human UACC-62 cells at 10 uM relative to control. The class given is functional.

The term IC50 denotes the concentration at which inhibition is half-maximal. The low end stands for greater potency in that assay, the high end for weaker potency in that assay.

Chain of Serine/threonine-protein kinase B-raf (P15056 2-766 V600E limits assumed): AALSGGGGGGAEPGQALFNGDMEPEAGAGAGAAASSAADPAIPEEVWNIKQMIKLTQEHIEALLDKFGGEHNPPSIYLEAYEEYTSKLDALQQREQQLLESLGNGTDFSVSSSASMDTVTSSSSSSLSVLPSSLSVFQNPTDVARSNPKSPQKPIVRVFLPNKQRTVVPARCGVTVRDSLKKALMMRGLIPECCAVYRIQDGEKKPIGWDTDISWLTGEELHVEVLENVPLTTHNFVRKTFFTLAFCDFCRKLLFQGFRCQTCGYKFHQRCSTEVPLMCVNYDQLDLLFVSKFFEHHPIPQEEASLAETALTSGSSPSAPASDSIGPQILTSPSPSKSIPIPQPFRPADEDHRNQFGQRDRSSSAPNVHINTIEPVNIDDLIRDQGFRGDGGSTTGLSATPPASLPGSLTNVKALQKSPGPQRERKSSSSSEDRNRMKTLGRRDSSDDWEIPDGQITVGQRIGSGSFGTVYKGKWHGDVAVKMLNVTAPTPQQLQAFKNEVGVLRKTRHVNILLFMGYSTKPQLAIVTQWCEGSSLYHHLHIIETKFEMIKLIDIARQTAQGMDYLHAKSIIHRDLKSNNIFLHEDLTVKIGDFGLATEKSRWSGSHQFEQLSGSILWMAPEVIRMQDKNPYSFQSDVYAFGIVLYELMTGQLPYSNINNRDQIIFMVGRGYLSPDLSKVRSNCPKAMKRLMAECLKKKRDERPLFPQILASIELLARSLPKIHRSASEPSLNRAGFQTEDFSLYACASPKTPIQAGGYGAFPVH

`Nc1cccc(-c2nc3sccn3c2-c2ccnc(NCCNS(=O)(=O)c3ccc(Cl)cc3)n2)c1`: the IC50 in assay [1] amounted to 16.7 nM.

For the molecule `Nc1cccc(-c2nc3sccn3c2-c2ccnc(NCCCCNS(=O)(=O)c3ccc(Br)cc3)n2)c1`, in assay [1], the IC50 was determined as 4.31 nM. The Activity in the assay on UACC-62 is given as 3.91%.

`Nc1cccc(-c2nc3sccn3c2-c2ccnc(NCCNS(=O)(=O)c3ccc(C(F)(F)F)cc3)n2)c1`: in assay [1], the IC50 worked out at 141 nM.

Turning to `Nc1cccc(-c2nc3sccn3c2-c2ccnc(NCCNS(=O)(=O)c3ccc(Br)cc3)n2)c1`, half-maximal inhibition in assay [1] (IC50) was put at 73.7 nM.

Turning to `COc1ccc(S(=O)(=O)NCCNc2nccc(-c3c(-c4cccc(N)c4)nc4sccn34)n2)cc1`, the 50% inhibitory concentration (IC50) in assay [1] turned out to be 23.4 nM.

As for `Cc1ccc(S(=O)(=O)NCCNc2nccc(-c3c(-c4cccc(N)c4)nc4sccn34)n2)cc1`, in assay [1], half-maximal inhibition (IC50) required 59.1 nM.

In assay [1], `Nc1cccc(-c2nc3sccn3c2-c2ccnc(NCCNS(=O)(=O)c3cccc4ccccc34)n2)c1` gave a 50% inhibitory concentration (IC50) of 152 nM.

With `Nc1cccc(-c2nc3sccn3c2-c2ccnc(NCCNS(=O)(=O)c3ccc(F)cc3)n2)c1`, 12.7 nM corresponded to half-maximal inhibition in assay [1] (IC50).

`Nc1cccc(-c2nc3sccn3c2-c2ccnc(NCCNS(=O)(=O)c3cccc(F)c3)n2)c1` registered a concentration for half-maximal inhibition (IC50) in assay [1] of 28.3 nM.

Source of the values: ChEMBL document CHEMBL4725337, “Modification of imidazothiazole derivatives gives promising activity in B-Raf kinase enzyme inhibition; synthesis, in vitro studies and molecular docking” (Bioorg Med Chem Lett, 2020).
